From patent publication US9387206B2, “Therapeutic approaches for treating Alzheimer's disease” (PHARNEXT, priority 2009, dated 2016)

Assays:
Assay type in all cases: cell-based
[1] = system: rat primary cortical neurons; test: LDH release, human Aβ1-42 toxicity on rat primary cortical cells
Procedure: Primary rat cortical neurons are cultured as described previously.
Briefly, Aβ1-42 peptide was reconstituted in defined culture medium at 40 μM (mother solution) and was slowly shacked at +37° C. for 3 days in the dark for aggregation. The control medium was prepared in the same conditions.
After 10 days of neuron culture, the drug was solved in culture medium (+0.1% DMSO) and then pre-incubated with neurons for 1 hour before the Aβ1-42 application (in a final volume per culture well of 100 μl). […] Cortical neurons were intoxicated for 24 hours. Three separate cultures were performed per condition, 6 wells per condition.
Estradiol-β at 100 and 150 nM were used as a reference test compound and BDNF at 50 ng/ml was used as a positive control. Three separate cultures were performed per condition, […].
Estradiol-β and BDNF were solved in culture medium and pre-incubated for 1 h before the aggregated amyloid-β1-42 application.
Lactate Dehydrogenase (LDH) Activity Assay
This colorimetric assay for the quantification of cell toxicity is based on the measurement of lactate dehydrogenase (LDH) activity released from the cytosol of dying cells into the supernatant.
All values are expressed as mean±s.e.mean of the 3 cultures (n=6 per condition). Statistical analyses were done on the different conditions (ANOVA followed by the Dunnett's test when it was allowed, Statview software version 5.0).

[2] = system: human brain microvascular endothelial cells (HBMEC); test: Total length of capillary network in human Aβ1-42 intoxicated HBMEC cultures; settings: for Effect on Aβ1-42 intoxication, total length of capillary network, drug alone / Prevention of Aβ1-42 intoxication, capillary network, drug alone: Aβ1-42 2.5 μM; for Prevention of Aβ1-42 intoxication, capillary network, drug alone: dose-response experiments, 18 h
Procedure: Human brain microvascular endothelial cell cultures were used to study the protection afforded by candidate compounds on Aβ1-42 toxicity.
Human brain microvascular endothelial cerebral cells (HBMEC, ScienCell Ref: 1000, frozen at passage 10) were rapidly thawed in a water bath at +37° C. […] On matrigel support, endothelial cerebral cells spontaneously started the process of capillary network morphogenesis (47).
Three separate cultures were performed per condition, 6 wells per condition.
The control medium was prepared in the same conditions.
The Aβ1-42 peptide was added 2 hours after HBMEC seeding on matrigel for 18 hours incubation.
Capillary Network Quantification
Per well, 2 pictures with 4× lens were taken using InCell Analyzer™ 1000 (GE Healthcare) in light transmission. All images were taken in the same conditions. Analysis of the angiogenesis networks was done using Developer software (GE Healthcare). The total length of capillary network was assessed.
All values are expressed as mean±s.e.mean of the 3 cultures (n=6 per condition). Statistical analyses were done on the different conditions performing an ANOVA followed by the Dunnett's test when it was allowed (Statview software version 5.0). The values (as %) inserted on the graphs show the amyloid toxicity evolution. Indeed, the amyloid toxicity was taken as the 100% and the test compound effect was calculated as a % of this amyloid toxicity.

[3] = system: rat endothelial cerebral cells; test: LDH release from rat endothelial cerebral cells, beta-amyloid (Aβ25-35) toxicity; settings: for Prevention of Aβ25-35 intoxication, LDH release: Aβ25-35 30 μM, 3 days, drug added 1 hour before; for Spontaneous cell death in the culture medium: LDH release, rat endothelial cerebral cells
Procedure: Primo culture of rat endothelial cerebral cells (Vect-Horus SAS, Marseille) is cultivated on passage 0. At confluence, endothelial cells are dissociated with trypsin EDTA (Pan Biotech Ref: P10-023100). Cells are seeded at a density of 25,000 cells/well in 96-well plates (wells are coated with 30 μl of type I rat collagen at 1.5 mg/ml, Vect-Horus SAS, Marseille) and are cultured in MCBD 131 medium (M-131-500, Invitrogen) supplemented with 1% of microvascular growth supplement (MVGS, S-005-25, Invitrogen). Cells are cultured at 37° C. in a humidified air (95%)/CO2(5%) atmosphere. Half of the medium is changed every other day with fresh medium.
After 4 days, drugs are added to the cell culture medium, at different concentrations, solved in DMSO 0.1% or water.
Cells are then intoxicated with 30 μM of β-amyloid (25-35; Sigma) together with drugs in the same culture medium. Cells are then intoxicated for 3 days.
For each culture, after 3 days of intoxication, the supernatant is collected and analyzed with the Cytotoxicity Detection Kit (LDH, Roche Applied Sciences). This colorimetric assay for the quantification of cell death is based on the measurement of lactate dehydrogenase (LDH) activity released from the cytosol of damaged cells into the supernatant. The optic density (DO) is assessed by spectrophotometer at 492 nm wavelength by a multiscan apparatus (Thermo, Ref Ascent).
Results presented in FIG. 3 are extracted from two independent cultures, 6 wells per condition. All values are expressed as mean±s.e.m. A bilateral Student's t test analysis is performed on raw data. Results are expressed in percentage of cell viability, compared to the control (vehicle).
Drugs are incubated with rat primary cerebral endothelial cells for one hour before Aβ25-35 30 μM intoxication that lasts 3 days.
Three days after this incubation, LDH release in the culture medium is quantified, reflecting the level of cell death.

[4] = system: rat primary cortical neurons; test: LDH release in Aβ25-35 intoxicated rat primary cortical neuron culture; settings: Aβ25-35 20 μM, 2 days; drug added 1 hour before
Procedure: Primary rat cortical neurons are cultured as described by Singer et al., 1999. Briefly pregnant female rats of 15 days gestation are killed by cervical dislocation (Rats Wistar; Janvier) and the foetuses removed from the uterus. The cortexes are removed and placed in ice-cold medium of Leibovitz (L15; Invitrogen) containing 1% of Penicillin-Streptomycin (PS; Invitrogen) and 1% of bovine serum albumin (BSA; Sigma). Cortexes are dissociated by trypsinisation for 20 min at 37° C. (Trypsin EDTA 1×; Invitrogen) diluted in PBS without calcium and magnesium. The reaction is stopped by the addition of Dulbecco's modified Eagle's medium (DMEM; Invitrogen) containing DNAase I grade II (0.1 mg/ml; Roche Diagnostics) and 10% of foetal calf serum (FCS; Invitrogen). Cells are then mechanically dissociated by 3 passages through a 10 ml pipette. Cells are then centrifuged at 180×g for 10 min at 10° C. […] Viable cells are counted in a Neubauer cytometer using the trypan blue exclusion test. Cells are seeded at a density of 30,00-cells/well in 96-well plates (wells are pre-coated with poly-L-lysine (10 μg/ml; […] After 6 days of culture, cells are incubated with drugs (5 concentrations). After 1 hour, cells are intoxicated by 20 μM of β-amyloid (25-35; Sigma) in defined medium without BDNF but together with drugs. Cortical neurons are intoxicated for 2 days. After 2 days of culture, the supernatant is collected and analyzed with the Cytotoxicity Detection Kit (LDH, Roche Applied Sciences). This colorimetric assay for the quantification of cell death is based on the measurement of lactate dehydrogenase (LDH) activity released from the cytosol of damaged cells into the supernatant. The optic density (DO) is assessed by spectrophotometer at 492 nm wavelength by a multiscan apparatus (Thermo, Ref Ascent). […] Two days after this incubation, LDH release in the culture medium is quantified, reflecting the level of cell death.

[5] = drug pretreatment, concentration not given
[6] = alone at the concentrations used in the combination (FIGS. 8-13)

Row | Molecule | LDH release, prevention of Aβ1-42 intoxication [1, 5] [%] | Effect on Aβ1-42 intoxication, total length of capillary network, drug alone [2, 6] | Prevention of Aβ1-42 intoxication, capillary network, drug alone [2] | Prevention of Aβ25-35 intoxication, LDH release [3] | other results
1 | NCC(CC(=O)O)c1ccc(Cl)cc1 (racemic) [Baclofen] | −86 | no significant effect | significantly prevented |  | 
2 | NCCCCCC(=O)O [Aminocaproic acid, Aminocaproic Acid] |  | no significant effect |  |  | 
3 | NCC(CC(=O)O)c1ccc(Cl)cc1 (stereo not drawn) [Baclofen (−), Baclofen] |  |  |  | significantly prevented | 
4 | CCN(CC)C(=O)N1CCN(C)CC1 [Carbamazine] |  |  |  |  | Effect on Aβ1-42 intoxication, LDH release, drug alone ([1]; 0.32 nM alone, Aβ1-42 2.5 μM): no significant effect; LDH release, prevention of Aβ1-42 intoxication ([1]; 40 nM, Aβ1-42 10 μM): −68%; Protective effect against toxicity of Aβ peptide 1-42, drug alone ([1]; 40 nM, primary cortical neuron cells): strong protective effect
5 | CC1(C)[C@@H](OC(=O)CCC(=O)O)CC[C@]2(C)[C@H]3C(=O)C=C4[C@@H]5C[C@@](C)(C(=O)O)CC[C@]5(C)CC[C@@]4(C)[C@]3(C)CC[C@@H]12 [Carbenoxolone] | −39 |  |  |  | 
6 | C(=C\c1ccccc1)/CN1CCN(C(c2ccccc2)c2ccccc2)CC1 [Cinnarizine] | −50 |  |  |  | 
7 | CCOC(=O)c1cncn1[C@H](C)c1ccccc1 [Etomidate] | −50 |  |  |  | 
8 | Cc1oncc1C(=O)Nc1ccc(C(F)(F)F)cc1 [Leflunomide] |  |  |  | significantly prevented | Spontaneous cell death in the culture medium [3]: decrease spontaneous cell death; Prevention of Aβ25-35 intoxication, LDH release [4]: significantly prevented
9 | C[C@@H]1CC(=O)NN=C1c1ccc(NN=C(C#N)C#N)cc1 [Levosimendan] | −47 | no significant effect | significantly prevented |  | Protective effect against toxicity of Aβ peptide 1-42, drug alone ([2]; 8 nM, HBMEC): strong protective effect
10 | Cc1noc(NS(=O)(=O)c2ccc(N)cc2)c1C [Sulfisoxazole] | −42 | no significant effect | significantly prevented | significantly prevented | Prevention of Aβ25-35 intoxication, LDH release [4]: significantly prevented; Effect on Aβ1-42 intoxication, total length of capillary network, drug alone ([2]; 1.36 nM alone): no significant effect
11 | CN(C/C=C/C#CC(C)(C)C)Cc1cccc2ccccc12 [Terbinafine] |  | no significant effect | significantly prevented | significantly prevented | Spontaneous cell death in the culture medium [3]: decrease spontaneous cell death
12 | brain-derived neurotrophic factor (protein, UniProt P23560 19-247, looked up, positive control for neuroprotection at 50 ng/ml) Neurotrophic factor BDNF …: APMKEANIRGQGGLAYPGVRTHGTLESVNGPKAGSRGLTSLADTFEHVIEELLDEDQKVRPNEENNKDADLYTSRVMLSSQVPLEPPLLFLLEEYKNYLDAANMSMRVRRHSDPARRGELSVCDSISEWVTAADKKTAVDMSGGTVTVLEKVPVSKGQLKQYFYETKCNPMGYTKEGCRGIDKRHWNSQCRTTQSYVRALTMDSKKRIGWRFIRIDTSCVCTLTIKRGR |  |  |  |  | LDH release, protection from amyloid injury ([1]; BDNF 50 ng/ml, 1 hr pre-treatment, Aβ1-42): −62%
